Source: US9895363B2, “Methods for modulating function of proliferating cell nuclear antigen (PCNA) and treating cancer with PCNA-targeting compounds” (University of Cincinnati, priority 2010, dated 2018)
Entries after “also recorded” stand apart in the source; their conditions may differ. Read-outs that look alike come from different tables or passages of the source.

Experiments:
PCNA = molecular target: T1, PCNA (Homo sapiens, UniProt P12004); test: Association of PCNA with chromatin, PC-3 (NP-E/NP-R western blot); assay type: cell-based
T1 construct: endogenous PCNA was knocked down with transfection of PCNA-specific siRNA; endogenous in cells; host or cells: PC-3
T1 sequence (P12004 whole entry): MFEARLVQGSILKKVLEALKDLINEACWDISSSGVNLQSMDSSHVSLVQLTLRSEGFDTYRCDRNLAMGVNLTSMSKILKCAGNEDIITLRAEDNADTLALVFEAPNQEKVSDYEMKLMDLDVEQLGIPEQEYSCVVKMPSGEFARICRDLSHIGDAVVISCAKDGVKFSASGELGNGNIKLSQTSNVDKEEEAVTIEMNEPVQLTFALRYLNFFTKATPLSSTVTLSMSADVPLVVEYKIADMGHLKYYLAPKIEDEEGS
Protocol: The encircling of DNA and association with chromatin is required for PCNA to execute its function. Therefore, the effect of PCNA-I1 on the association of PCNA with chromatin was investigated. PC-3 cells were treated for various times with 0.5 μM of PCNA-I1 and lysed in buffer A (10 mM Tris-HCl, pH 7.4, 2.5 mM MgCl2, 0.5% NP-40, 1 mM DTT, 1 mM PMSF, and protease inhibitor cocktail). Samples were pelleted by centrifuge (1500×g, 2 min, 4° C.), and supernatant collected as NP-40-extractable ([…]) fraction. The pellet was washed in NP-40 buffer B (10 mM Tris-HCl, pH 7.4, 150 mM NaCl, 1 mM PMSF, and a protease inhibitor cocktail) to release the free form of PCNA. The cells were resuspended and digested in buffer C (10 mM Tris-HCl, pH 7.4, 10 mM NaCl, 5 mM MgCl2, 0.2 mM PMSF, and protease inhibitors) with 200 units/[…] of DNase I for 30 min at 37° C. After centrifugation at 13,000×g for 5 min at 4° C., the supernatant was collected and fractions were analyzed by western blotting. MCF-7, HeLa, and LNCaP cells were also subjected to treatment with 0.5 μM of PCNA-I1 and subjected to western blotting as previously discussed.

[1] = test system: primary mouse spleen lymphocytes; test: Alamar blue assay of lymphocyte growth; assay type: cell-based; settings: for IC50: Lymphocyte
Protocol: IC50 values were derived from growth inhibition curves. Data for tumor cells are a mean of five to seven experiments. Data for primary cells are a mean of three experiments. […] Inhibition of cell growth was calculated using the formula: growth inhibition (%)=(1−A570 of treated/A570 of control)×100. IC50 (the concentration that inhibited cell growth by 50%) values were also determined. For evaluation of lymphocyte growth in suspension, an Alamar blue assay was performed, wherein freshly prepared mouse spleen lymphocytes were stimulated for 72 H with 2 ug/mL concanavalin A (Sigma Chemicals, St. Louis, […].). During the last 24 H, 20 μl/well of Alamar blue (Invitrogen, Carlsbad, Calif.) was added. The fluorescence intensity was measured at 530/580 (excitation/emission) in the FLUOstar Omega microplate reader (BMG LABTECH, Cary, N.C.).
The effects of PCNA-I1 on growth of tumor cells versus primary cells was also investigated. Specifically, the effects of PCNA-1I on the growth of primary cells was investigated using primary culture of mouse lymphocytes. An Alamar blue assay was performed with PC-3 cells as a positive control. Freshly prepared mouse spleen lymphocytes were stimulated for 72 H with 2 μg/mL of concanavalin A. During the last 24 H, 20 μL/well of alamar blue was added. The fluorescence intensity was measured at 530/580 (excitation/emission).

[2] = test system: HUVEC (primary human umbilical endothelial cells); test: Growth inhibition, HUVEC; assay type: cell-based; settings: for IC50: HUVEC
Protocol: (§1) Growth inhibitory effects of PCNA-I1 and PCNA-I2 were assessed in human cancer cell lines, mouse cancer cell lines, immortalized mouse cell lines, and human primary cell lines. Specifically, growth inhibitory effects of PCNA-I1 and PCNA-I2 were assessed using MTT staining in the following cells lines: 1) human cancer cell lines including LNCaP (androgen receptor […]), 22Rv1, DU-145, LAPC-4, and PC-3 (androgen receptor […]) prostate cancer cells; MCF-7 and T47D breast cancer cells; A375 and MDA-MB435 melanoma cells; 2) mouse cancer cell lines including TRAMP-C2RE3 prostate cancer cells, B16 and K1735 melanoma cells, UV2237 fibrosarcoma cells, and CT-26 colon cancer cells; 3) immortalized mouse lung cell lines and mouse endothelial cell lines; and 4) primary human cell lines including umbilical endothelial cells (HUVEC, PromoCell, Heidelberg, Germany), primary bone marrow mesenchymal stem cells (HuMSC, PromoCell), primary human mammary epithelial cells (HuBrEC, Lonza, Walkersville, Md.), primary human prostate epithelial cells (HuPrEC, Lonza), and primary mouse spleen lymphocytes (isolated in this laboratory), and primary mouse bone marrow stromal cells (isolated in this laboratory). PCNA-I1 and PCNA-I2 were either provided by the University of Cincinnati Drug Discovery Center (UC-DDC, Cincinnati, Ohio) or were purchased from Chembridge Co (San Diego, Calif.), ChemDiv (San Diego, Calif.), and/or Sigma-Aldrich (St Louis, Mo.).
Growth inhibitory effects of the compounds were assessed by MTT staining as described previously by Dong et al. in In Vitro Model for Intrinsic Drug Resistance: Effects of Protein Kinase C Activators on the Chemosensitivity of Cultured Human Colon Cancer Cells; Mol. Pharmacol. 1991; 39: 563-9. […]
IC50 values were derived from growth inhibition curves. […] Inhibition of cell growth was calculated using the formula: growth inhibition (%)=(1−A570 of treated/A570 of control)×100. […] The fluorescence intensity was measured at 530/580 (excitation/emission) in the FLUOstar Omega microplate reader (BMG LABTECH, Cary, N.C.). […]

[3] = test system: primary mouse bone marrow stromal cells; test: Growth inhibition, mouse bone marrow stromal cells; assay type: cell-based; settings: normal cells, read-out: IC50 Values, Bone Marrow Stroma Cells
Protocol: as §1, with “PCNA-I1 and PCNA-I2 were either provided by the University of Cincinnati Drug Discovery Center (UC-DDC, Cincinnati, Ohio) or were purchased from Chembridge Co (San Diego, Calif.), ChemDiv (San Diego, Calif.), and/or Sigma-Aldrich (St Louis, Mo.).” left out
(§2) IC50 values were derived from growth inhibition curves. […] Inhibition of cell growth was calculated using the formula: growth inhibition (%)=(1−A570 of treated/A570 of control)×100. […]

[4] = test system: TRAMP-C2RE3 prostate cancer cells; test: Growth inhibition by MTT staining, TRAMP-C2RE3; assay type: cell-based; settings: 96 h, Mouse, Prostate tumor cells, treated four days
Protocol: as §1, with “PCNA-I1 and PCNA-I2 were either provided by the University of Cincinnati Drug Discovery Center (UC-DDC, Cincinnati, Ohio) or were purchased from Chembridge Co (San Diego, Calif.), ChemDiv (San Diego, Calif.), and/or Sigma-Aldrich (St Louis, Mo.).” left out
as §2

[5] = test system: CT26R100 murine colon cancer cell line; test: Growth inhibition by MTT staining, CT26R100; assay type: cell-based, Mouse

Cc1ccsc1C(=O)N/N=C/c1ccc2ccccc2c1O [PCNA-I1]
PCNA in NP-E fraction (free-form PCNA), time course (PCNA; PC-3, 0.5 μM, FIG. 10(A)): not significantly altered in cells treated by PCNA-I1 for up to 8 H but reduced in cells treated for 16 H | PCNA in NP-R fraction (chromatin-associated PCNA), time course (PCNA; PC-3, 0.5 μM, FIG. 10(A)): reduced in 1 to 2 H | Chromatin-associated and free form PCNA, concentration dependence (PCNA; PC-3, FIG. 10(B)): at concentration of 0.5 μM or lower mainly reduced the level of chromatin-associated PCNA and at concentration of 1 μM or higher led to a reduction of both the chromatin-associated and free form PCNA | IC50 ([1]; FIG. 2(B), Alamar blue assay, mouse spleen lymphocytes, read-out: IC50, lymphocytes): 1500 nM | IC50 ([1]; Mouse, normal cells, Alamar blue, read-out: IC50 Values, Spleen Lymphocytes): 1500 nM | Lymphocyte growth at low concentrations ([1]; with or without concanavalin A): promoted lymphocyte growth at concentrations below the cytotoxic or cytostatic doses | Growth stimulation, HUVEC ([2]; FIG. 2(C)): Moderate growth stimulation | IC50 ([2]; Human, Blood Vessel, normal cells, mean of three experiments, read-out: IC50 Values, HUVEC): 1540 nM | IC50 ([2]; Homo sapiens, FIG. 2(C), read-out: IC50, HUVEC): 1540 nM | IC50 [3]: 1900 nM | IC50 [4]: 200 nM | IC50 ([5]; Mouse tumor cells, cell line not given, read-out: IC50 Values, cell line cell blank (second row below UV2237)): 80 nM | Sensitivity of multidrug resistant CT26R100 and CT26-R500 cells relative to parental CT26 cells ([5]; cells overexpress P-glycoprotein, MDR phenotype): even more sensitive to PCNA-I1 than the parental CT26 cells; also recorded: as susceptible as the parental CT-26 cells
